Laboratory results taken from PubChem BioAssay (NCI).
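Dose response: 5 concentrations. Exposure: 48 h. Format: 96-well plates. Endpoint: linear interpolation; highest concentration if not reached. GI50 = concentration required for 50% inhibition of growth. At the TGI there is no net growth.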

Legend:
Assay in all cases: DTP human tumour cell line panel, 48 h
ACHN renal = tested on: ACHN renal
HL-60(TB) leukemia = tested on: HL-60(TB) leukemia
MALME-3M melanoma = tested on: MALME-3M melanoma
NCI-H226 lung = tested on: NCI-H226 lung
NCI-H23 lung = tested on: NCI-H23 lung
OVCAR-3 ovarian = tested on: OVCAR-3 ovarian
OVCAR-5 ovarian = tested on: OVCAR-5 ovarian
SF-295 CNS = tested on: SF-295 CNS
UACC-257 melanoma = tested on: UACC-257 melanoma
UO-31 renal = tested on: UO-31 renal

SMILES | GI50 (ACHN renal) | TGI (ACHN renal) | GI50 (HL-60(TB) leukemia) | TGI (HL-60(TB) leukemia) | GI50 (MALME-3M melanoma) | TGI (MALME-3M melanoma) | GI50 (NCI-H226 lung) | TGI (NCI-H226 lung) | GI50 (NCI-H23 lung) | TGI (NCI-H23 lung) | GI50 (OVCAR-3 ovarian) | TGI (OVCAR-3 ovarian) | GI50 (OVCAR-5 ovarian) | TGI (OVCAR-5 ovarian) | GI50 (SF-295 CNS) | TGI (SF-295 CNS) | GI50 (UACC-257 melanoma) | TGI (UACC-257 melanoma) | GI50 (UO-31 renal) | TGI (UO-31 renal)
CCN1CCN(C(=O)[C@@]2(C)CC[C@]3(C)CC[C@]4(C)C(=CC(=O)[C@@H]5[C@@]6(C)CC[C@H](OC7C[C@@H](O)[C@@H](O)C(C)O7)C(C)(C)[C@@H]6CC[C@]54C)[C@@H]3C2)CC1 (some centres undefined) | 910 nM | 1690 nM | 939 nM | 1910 nM | 917 nM | 2050 nM | 10300 nM | 21300 nM | 2360 nM | 9570 nM | 8750 nM | 16700 nM | 1190 nM | 3120 nM | 934 nM | 1830 nM | 1650 nM | 6520 nM | 757 nM | 1530 nM
Nc1nn2cc(F)cnc2c1C(=O)Nc1cncc(F)c1N1CCC(C(=O)N2CCN(C3COC3)CC2)CC1 | 250 nM | – | 129 nM | 465 nM | 608 nM | 12000 nM | 1170 nM | 4450 nM | 60.6 nM | 498 nM | 854 nM | 26000 nM | 616 nM | > 100000 nM | 238 nM | 1860 nM | 1320 nM | > 76400 nM | 284 nM | 2620 nM
